The nature of data set [1]: Potentiometric titration of the ligand with KOH: deprotonation constants. The note with it: titration with KOH in KCl 0.1M, 298 K. Format: physicochemical. An excerpt: (§1) The three sulfonates are fully deprotonated under the experimental conditions used. The deprotonation constants of H9thqtcn-SO3^3+ are defined as Kai=[H9-iL]^(1-i) [H]^+/[H8-iL]^(2-i)+. Analysis of the potentiometric curves enabled precise determination of 6 deprotonation constants (pKa8=2.9(2), pKa7=5.34(5), pKa6=8.01(8), pKa5=8.78(1), pKa4=8.98(4), pKa3=10.25(2)), whereas it was possible only to obtain the sum pKa1+pKa2=(22.51(3)).

The nature of data set [2]: Stability of the Gd complex (pGd) by UV-visible spectrophotometry in HEPES buffer pH 7.4. Format: physicochemical. The note with it: pH 7.4, HEPES, [M]total=1 mM, [bpatcn]total=10 mM. The method, then: Appreciably, the interaction between the lanthanide ions and the ligand was monitored by UV-visible spectrophotometry for a representative ion of intermediate size, namely Gd in dilute aqueous solutions, buffered with HEPES at pH 7.4. The value of pGd (pM=−log [M]free at pH 7.4, [M]total=1 mM and [bpatcn]total=10 mM), which allows a simple and direct comparison of the stabilities of the complexes under physiological conditions, found for thqtcn-SO3^6−(19) is similar to the value reported for the gadolinium complexes of diethylenetriaminepentaacetic acid (dtpa) (pGd=19.6), which are widely acknowledged as non-toxic.

Data set [3] can be described thus: Solubility observations. Format: physicochemical. The conditions noted are these: aqueous, potentiometric titration conditions.
Excerpt: as §1
The elemental analyses of all the complexes are compatible with the presence of analytically pure [Ln(thqtcn)] species. These complexes are insoluble in all the commonly used laboratory solvents.
As hoped, this ligand results in Ln(III) complexes that are water-soluble at physiological pHs.

The conditions of data set [4]: gadolinium complexes of dtpa; cited from earlier work.

The values that follow come from patent US8268355B2, “Silica particle comprising an organolanthanide compound, preparation process therefor and uses thereof” (Commissariat a l'Energie Atomique, priority 2008, dated 2012).

For “1,4,7-tris[2-(5-sulfo-8-hydroxyquinolinyl)methyl]-1,4,7-triaza-cyclononane [H6thqtcn-SO3]”, in data set [1], the pKa3 is 10.25(2), the pKa4 is on record as 8.98(4), the pKa5 was 8.78(1) and the pKa6 was 8.01(8). For the same compound, in data set [1], the pKa7 was 5.34(5), the pKa8 was 2.9(2) and the “sum pKa1+pKa2” value is given as 22.51(3). For the same compound, the “pGd (pM=-log [M]free)” value in data set [2] was determined as 19. In addition, the “solubility of the ligand” value in data set [3] was “high solubility”.

On to `O=C(O)CN(CCN(CC(=O)O)CC(=O)O)CCN(CC(=O)O)CC(=O)O` [dtpa, diethylenetriaminepentaacetic acid], for which the “pGd (reported value)” value in data set [4] is 19.6.
